Results as given in ChEMBL document CHEMBL4011651, “Discovery of the Irreversible Covalent FGFR Inhibitor 8-(3-(4-Acryloylpiperazin-1-yl)propyl)-6-(2,6-dichloro-3,5-dimethoxyphenyl)-2-(methylamino)pyrido[2,3-d]pyrimidin-7(8H)-one (PRN1371) for the Treatment of Solid Tumors” (J Med Chem, 2017).

Key:
[1] = in vitro; settings: mouse, whole blood
[2] = Volume of distribution at steady state in Sprague-Dawley rat at 2 mg/kg, iv; format: ADME, organism-based; settings: in vivo, read-out: Vdss
[3] = Half life in cynomolgus monkey at 1.23 mg/kg, iv; format: ADME, organism-based, Macaca fascicularis; settings: in vivo
[4] = Half life in Sprague-Dawley rat at 2 mg/kg, iv; format: ADME, organism-based; settings: in vivo
[5] = Volume of distribution at steady state in Beagle dog at 2 mg/kg, iv; format: ADME, organism-based, Canis lupus familiaris; settings: in vivo, read-out: Vdss
[6] = in vitro; settings: human, whole blood
[7] = Cmax in Sprague-Dawley rat at 20 mg/kg, po; format: ADME, organism-based; parameters: dose 20 mg/kg, route oral; settings: in vivo
[8] = in vitro; settings: human, plasma
[9] = Half life in cynomolgus monkey at 10 mg/kg, po; format: ADME, organism-based, Macaca fascicularis; settings: in vivo
[10] = Volume of distribution at steady state in cynomolgus monkey at 1.23 mg/kg, iv; format: ADME, organism-based, Macaca fascicularis; settings: in vivo, read-out: Vdss
[11] = Oral bioavailability in Beagle dog at 10 mg/kg; format: ADME, organism-based, Canis lupus familiaris; settings: in vivo
[12] = AUC in cynomolgus monkey at 10 mg/kg, po; format: ADME, organism-based, Macaca fascicularis; settings: in vivo
[13] = AUC in Sprague-Dawley rat at 20 mg/kg, po; format: ADME, organism-based; settings: in vivo
[14] = Oral bioavailability in cynomolgus monkey at 10 mg/kg; format: ADME, organism-based, Macaca fascicularis; settings: in vivo
[15] = AUC in Beagle dog at 2 mg/kg, iv; format: ADME, organism-based, Canis lupus familiaris; settings: in vivo
[16] = in vivo; settings: Sprague-Dawley, rat, iv, 2 mg/kg
[17] = Clearance in Beagle dog at 2 mg/kg, iv; format: ADME, organism-based, Canis lupus familiaris; settings: in vivo
[18] = Clearance in Sprague-Dawley rat at 2 mg/kg, iv; format: ADME, organism-based; settings: in vivo
[19] = system: Plasma; assay: Plasma concentration in rat at 10 mg/kg, po measured at 12 hrs post dose; format: ADME, organism-based; settings: in vivo
[20] = AUC in Beagle dog at 10 mg/kg, po; format: ADME, organism-based, Canis lupus familiaris; settings: in vivo
[21] = Plasma concentration in rat at 10 mg/kg, po measured at 1 hr post dose; format: ADME, organism-based
[22] = Cmax in Beagle dog at 2 mg/kg, iv; format: ADME, organism-based, Canis lupus familiaris; parameters: dose 2 mg/kg, route intravenous; settings: in vivo
[23] = Cmax in Sprague-Dawley rat at 2 mg/kg, iv; format: ADME, organism-based; parameters: dose 2 mg/kg, route intravenous; settings: in vivo
[24] = Cmax in cynomolgus monkey at 1.23 mg/kg, iv; format: ADME, organism-based, Macaca fascicularis; parameters: dose 1.23 mg/kg, route intravenous; settings: in vivo
[25] = Cmax in cynomolgus monkey at 10 mg/kg, po; format: ADME, organism-based, Macaca fascicularis; parameters: dose 10 mg/kg, route oral; settings: in vivo
[26] = Clearance in cynomolgus monkey at 1.23 mg/kg, iv; format: ADME, organism-based, Macaca fascicularis; settings: in vivo
[27] = AUC in cynomolgus monkey at 1.23 mg/kg, iv; format: ADME, organism-based, Macaca fascicularis; settings: in vivo
[28] = Cmax in Beagle dog at 10 mg/kg, po; format: ADME, organism-based, Canis lupus familiaris; parameters: dose 10 mg/kg, route oral; settings: in vivo
[29] = Half life in Sprague-Dawley rat at 20 mg/kg, po; format: ADME, organism-based; settings: in vivo

## C=CC(=O)Nc1ccc(CCn2c(=O)c(-c3cc(OC)cc(OC)c3Cl)cc3cnc(NC)nc32)cn1
[1]
  half-life: 51 min

## C=CC(=O)N1CCN(CCCn2c(=O)c(-c3c(Cl)c(OC)cc(OC)c3Cl)cc3cnc(NC)nc32)CC1 [PRN-1371]
[2]
  Vd: 7.2 L/kg
[3]
  half-life: 20.9 min
[4]
  half-life: 45.8 min
[5]
  Vd: 2.9 L/kg
[6]
  remaining at 2 h: 73%
[7]
  Cmax: 1780 ng/mL
[8]
  remaining at 2 h: 70%
[9]
  half-life: 29.2 min
[10]
  Vd: 1.14 L/kg
[11]
  bioavailability: 94%
[12]
  AUC: 84.4 ng·h/mL
[13]
  AUC: 4350 ng·h/mL
[14]
  bioavailability: 2.3%
[15]
  AUC: 284 ng·h/mL
[16]
  AUC: 208 ng·h/mL
[17]
  clearance: 117 mL/min/kg
[18]
  clearance: 160 mL/min/kg
[19]
  Drug uptake: Not Active
[20]
  AUC: 1340 ng·h/mL
[21]
  concentration at 1 h: 538 ng/mL
[22]
  Cmax: 1090 ng/mL
[23]
  Cmax: 596 ng/mL
[24]
  Cmax: 999 ng/mL
[25]
  Cmax: 95.8 ng/mL
[26]
  clearance: 42.9 mL/min/kg
[27]
  AUC: 472 ng·h/mL
[28]
  Cmax: 1100 ng/mL
[29]
  half-life: 226 min
